# Measured values from patent publication US10710996B2, “Pyrido-azaheterecydic compound and preparation method and use thereof” (SHANGHAI INSTITUTE OF MATERIA MEDICA, CHINESE ACADEMY OF …, priority 2015, dated 2020).
# Values joined by “and” are separate entries in the source; they are usually repeats but may differ in a detail not shown here. Identical values can stand only once. Like-named read-outs stand apart in the source and are kept apart here.
# Key:
# c-Met kinase = target: T1, c-Met kinase (Homo sapiens, UniProt P08581); experiment: Inhibitory effect on c-Met kinase activity at molecular level (ELISA); type: biochemical;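 also: recombinant c-Met kinase domain with 5 µM ATP, 1 h at 37 °C, substrate phosphorylation detected by anti-phosphotyrosine PY99 ELISA at 490 nm versus DMSO negative control, ATP-free wells as blank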
# T1 construct: c-Met kinase domain recombinant protein diluted with 49 μL of the reaction buffer was added
# T1 sequence (P08581 1078-1345 limits assumed): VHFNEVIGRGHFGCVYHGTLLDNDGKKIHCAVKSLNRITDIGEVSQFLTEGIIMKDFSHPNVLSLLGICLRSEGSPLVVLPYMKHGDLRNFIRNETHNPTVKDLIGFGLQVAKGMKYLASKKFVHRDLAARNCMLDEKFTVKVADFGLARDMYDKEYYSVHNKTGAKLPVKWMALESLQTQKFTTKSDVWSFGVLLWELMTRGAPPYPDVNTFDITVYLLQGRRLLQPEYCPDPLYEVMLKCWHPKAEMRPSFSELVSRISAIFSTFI
# Method: Experiment for Preliminarily Evaluating the Inhibitory Effect on the Activity of Receptor Tyrosine Kinase c-Met at Molecular Level
# After discarding the liquid in the wells, the plate was washed with T-PBS (0.1% Tween-20 in PBS) in an amount of 200 μL/well three times, each for 5 minutes. The ELISA plate was dried in an oven at 37° C. for 1-2 hours. 50 μl of adenosine triphosphate (ATP) solution diluted with reaction buffer (50 mM 4-hydroxyethylpiperazine ethanesulfonic acid (HEPES) pH 7.4, 50 mM MgCl2, 0.5 mM MnCl2, 0.2 mM Na3VO4, 1 mM dithiothreitol (DTT)) to a final concentration of 5 μM was added to each well. The compounds were diluted to an appropriate concentration with DMSO (1 μL/well) or a solution containing DMSO in a corresponding concentration (negative control well), and then c-Met kinase domain recombinant protein diluted with 49 μL of the reaction buffer was added therein to initiate the reaction, with two ATP-free control wells for each test. The plate was placed in a shaker (100 rpm) at 37° C. for reacting 1 hour, and washed with T-PBS three times. Primary antibody PY99 diluent was added in an amount of 100 μL/well to allow the reaction in a shaker at 37° C. for 0.5 hour, and then the plate was washed with T-PBS three times. Then the secondary antibody horseradish peroxidase labeled goat anti-mouse IgG diluent was added in an amount of 100 μL/well, and the plate was placed in a shaker at 37° C. for reacting 0.5 hour, and then washed with T-PBS three times. 2 mg/ml of o-phenylenediamine (OPD) coloring solution (diluted with 0.1 M citric acid-sodium citrate buffer (pH=5.4) containing 0.03% H2O2) was then added at 100 μL/well and reacted at 25° C. for 1-10 min with light blocked (ultrasound was required to dissolve OPD, the coloring solution was prepared when needed). The reaction was stopped by adding 2 M of H2SO4 in an amount of 50 μL/well, and a wavelength-adjustable microplate reader SPECTRA MAX 190 was read at 490 nm.
# The inhibition rate of the sample was calculated by the following equation:
# RET = RET (Homo sapiens, UniProt P07949); experiment: Tyrosine kinase inhibition rate (ELISA), RET; type: biochemical; settings: read-out: Inhibtion rate (%) RET
# Chain of RET (P07949 29-1114, species assumed): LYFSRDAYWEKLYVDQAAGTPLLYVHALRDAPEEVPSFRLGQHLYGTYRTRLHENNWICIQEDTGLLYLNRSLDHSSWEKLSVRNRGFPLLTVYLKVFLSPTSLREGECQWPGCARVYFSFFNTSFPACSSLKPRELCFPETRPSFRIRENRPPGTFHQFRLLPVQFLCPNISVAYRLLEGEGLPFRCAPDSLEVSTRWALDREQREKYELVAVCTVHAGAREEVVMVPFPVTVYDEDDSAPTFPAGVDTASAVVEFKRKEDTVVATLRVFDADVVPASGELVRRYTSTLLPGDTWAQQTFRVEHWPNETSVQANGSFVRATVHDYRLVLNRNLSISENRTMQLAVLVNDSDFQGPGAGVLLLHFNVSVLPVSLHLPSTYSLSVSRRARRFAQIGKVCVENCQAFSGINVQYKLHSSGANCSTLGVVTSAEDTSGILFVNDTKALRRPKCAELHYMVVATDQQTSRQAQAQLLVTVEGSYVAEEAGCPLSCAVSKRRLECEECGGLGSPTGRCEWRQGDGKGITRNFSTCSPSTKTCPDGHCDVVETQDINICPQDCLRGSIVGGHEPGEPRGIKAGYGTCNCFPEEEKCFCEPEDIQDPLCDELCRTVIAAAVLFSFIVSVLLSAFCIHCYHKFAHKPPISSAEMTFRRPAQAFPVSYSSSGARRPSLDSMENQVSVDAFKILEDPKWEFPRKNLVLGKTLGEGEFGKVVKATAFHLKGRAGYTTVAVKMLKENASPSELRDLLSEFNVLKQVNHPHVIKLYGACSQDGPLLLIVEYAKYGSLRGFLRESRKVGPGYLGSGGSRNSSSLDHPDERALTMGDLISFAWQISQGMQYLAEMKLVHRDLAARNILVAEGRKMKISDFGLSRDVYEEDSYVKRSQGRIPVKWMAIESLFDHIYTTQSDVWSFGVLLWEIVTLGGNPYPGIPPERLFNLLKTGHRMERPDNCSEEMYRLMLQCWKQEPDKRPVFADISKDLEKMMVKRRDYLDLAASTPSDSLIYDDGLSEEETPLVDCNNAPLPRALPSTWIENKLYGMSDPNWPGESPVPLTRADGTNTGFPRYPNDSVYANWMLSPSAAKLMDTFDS
# PDGFR-β = PDGFR-β (Homo sapiens, UniProt P09619); experiment: Tyrosine kinase inhibition rate (ELISA), PDGFR-β; type: biochemical; settings: read-out: Inhibtion rate (%) PDGFR-β
# Chain of PDGFR-β (P09619 33-1106, species assumed): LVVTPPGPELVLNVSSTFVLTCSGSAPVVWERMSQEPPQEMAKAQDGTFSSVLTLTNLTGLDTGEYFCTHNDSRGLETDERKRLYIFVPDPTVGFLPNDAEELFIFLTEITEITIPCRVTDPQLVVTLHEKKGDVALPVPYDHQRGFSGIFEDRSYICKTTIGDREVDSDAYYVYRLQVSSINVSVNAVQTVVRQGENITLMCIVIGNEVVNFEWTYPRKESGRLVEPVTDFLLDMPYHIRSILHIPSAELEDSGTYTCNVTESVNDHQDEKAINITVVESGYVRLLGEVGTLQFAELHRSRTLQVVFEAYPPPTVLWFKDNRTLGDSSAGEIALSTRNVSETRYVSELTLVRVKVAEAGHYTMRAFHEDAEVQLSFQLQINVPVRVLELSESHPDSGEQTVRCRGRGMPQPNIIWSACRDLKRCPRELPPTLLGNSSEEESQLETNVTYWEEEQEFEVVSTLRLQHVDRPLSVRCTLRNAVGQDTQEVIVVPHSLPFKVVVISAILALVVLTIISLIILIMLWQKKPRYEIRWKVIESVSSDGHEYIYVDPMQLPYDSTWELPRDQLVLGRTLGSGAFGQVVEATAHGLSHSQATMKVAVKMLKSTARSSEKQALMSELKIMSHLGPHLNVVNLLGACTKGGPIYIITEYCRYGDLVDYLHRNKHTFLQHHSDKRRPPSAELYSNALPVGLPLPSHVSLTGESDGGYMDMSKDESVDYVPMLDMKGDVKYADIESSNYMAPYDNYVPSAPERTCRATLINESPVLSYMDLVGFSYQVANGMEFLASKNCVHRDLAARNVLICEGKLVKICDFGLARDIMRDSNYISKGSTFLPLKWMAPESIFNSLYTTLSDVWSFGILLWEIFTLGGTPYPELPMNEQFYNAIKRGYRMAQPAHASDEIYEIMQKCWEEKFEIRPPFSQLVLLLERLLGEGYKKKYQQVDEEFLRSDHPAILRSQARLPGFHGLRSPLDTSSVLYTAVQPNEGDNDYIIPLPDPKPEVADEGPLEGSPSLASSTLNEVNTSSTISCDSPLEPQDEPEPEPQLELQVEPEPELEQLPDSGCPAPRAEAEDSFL
# ABL = ABL (Homo sapiens, UniProt P00519); experiment: Tyrosine kinase inhibition rate (ELISA), ABL; type: biochemical; settings: read-out: Inhibtion rate (%) ABL
# Chain of ABL (P00519 whole entry, species assumed): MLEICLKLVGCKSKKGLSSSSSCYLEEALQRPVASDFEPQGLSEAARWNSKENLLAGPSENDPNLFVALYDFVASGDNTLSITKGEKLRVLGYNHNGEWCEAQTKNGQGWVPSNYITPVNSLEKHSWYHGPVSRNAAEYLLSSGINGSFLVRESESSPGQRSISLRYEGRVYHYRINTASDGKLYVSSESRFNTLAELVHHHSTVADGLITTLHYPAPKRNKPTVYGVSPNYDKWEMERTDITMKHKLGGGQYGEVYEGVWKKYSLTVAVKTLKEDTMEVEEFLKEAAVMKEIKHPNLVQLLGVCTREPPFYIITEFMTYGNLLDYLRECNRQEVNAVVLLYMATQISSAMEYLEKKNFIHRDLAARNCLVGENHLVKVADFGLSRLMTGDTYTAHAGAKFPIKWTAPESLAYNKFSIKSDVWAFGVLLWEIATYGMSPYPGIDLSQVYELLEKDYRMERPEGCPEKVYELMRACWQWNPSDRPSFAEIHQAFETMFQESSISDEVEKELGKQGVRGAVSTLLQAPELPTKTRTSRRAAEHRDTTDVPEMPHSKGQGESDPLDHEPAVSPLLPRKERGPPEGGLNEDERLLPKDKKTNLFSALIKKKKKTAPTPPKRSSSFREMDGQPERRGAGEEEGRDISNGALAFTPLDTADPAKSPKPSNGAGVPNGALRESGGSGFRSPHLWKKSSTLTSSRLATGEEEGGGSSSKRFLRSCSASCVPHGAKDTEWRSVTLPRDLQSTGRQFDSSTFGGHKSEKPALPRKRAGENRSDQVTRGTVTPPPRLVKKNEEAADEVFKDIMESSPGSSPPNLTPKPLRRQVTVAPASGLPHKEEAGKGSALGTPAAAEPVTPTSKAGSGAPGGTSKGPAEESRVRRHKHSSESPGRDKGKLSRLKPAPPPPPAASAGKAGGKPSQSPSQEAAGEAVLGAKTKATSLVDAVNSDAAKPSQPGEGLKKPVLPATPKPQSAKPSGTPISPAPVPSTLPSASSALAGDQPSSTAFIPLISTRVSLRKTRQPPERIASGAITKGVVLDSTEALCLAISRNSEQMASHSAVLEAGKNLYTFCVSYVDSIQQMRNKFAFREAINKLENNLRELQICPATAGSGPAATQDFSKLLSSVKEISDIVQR
# [1] = Pharmacokinetic test in rats; type: in vivo, Sprague-Dawley rats; settings: rat
# Method: 14 male Sprague-Dawley rats, weigh 200-220 g, were randomly divided into 4 groups with 4/3 in each group. The rats were intragastrically and intravenously administered with compound 7S and 8S respectively. The compounds were dissolved in normal saline containing 5% of DMSO and solubilized with 5% of tween-80 (Tween 80), and the final concentration of the sample was 1 mg/ml.
# The rats were fasted 12 h before the test, free drinking water. They were fed 2 h after administration.
# gavage administration: 0.25 h, 0.5 h, 1.0 h, 2.0 h, 3.0 h, 4.0 h, 6.0 h, 8.0 h and 24 h after administration;
# intravenous administration: 5 min, 0.25 h, 0.5 h, 1.0 h, 2.0 h, 4.0 h, 6.0 h, 8.0 h and 24 h after administration;
# 0.3 ml venous blood was collected from the retrobulbar venous plexus of rats at the above time point, and placed in a heparinized tube and centrifuged at 11000 rpm for 5 min. The plasma was separated and frozen in a refrigerator at −20° C.
# The concentrations of the compounds in rat plasma were measured by LC/MS/MS.
# Pharmacokinetic parameters after administration were calculated using the non-compartmental model of the Phoenix 1.3 software (Pharsight, U.S.A.).
# Peak concentration Cmax and peak time Tmax were the measured values;
# The area under the curve of the drug concentration vs. time AUC0-t value: calculated according to trapezoidal rule; AUC0-∞=AUC0-t+Ct/ke, Ct is the plasma concentration at the last measurable time point, ke is the elimination rate constant;
# Elimination half-life t1/2=0.693/ke;
# Average retention time MRT=AUMC/AUC.
# Clearance rate CL=D/AUC0-∞;
# Volume of distribution at steady state Vss=CL×MRT
# EGFR = EGFR (Homo sapiens, UniProt P00533); experiment: Tyrosine kinase inhibition rate (ELISA), EGFR; type: biochemical; settings: read-out: Inhibtion rate (%) EGFR
# FGFR1 = FGFR1 (Homo sapiens, UniProt P11362); experiment: Tyrosine kinase inhibition rate (ELISA), FGFR1; type: biochemical; settings: read-out: Inhibtion rate (%) FGFR1
# Chain of FGFR1 (P11362 22-822, species assumed): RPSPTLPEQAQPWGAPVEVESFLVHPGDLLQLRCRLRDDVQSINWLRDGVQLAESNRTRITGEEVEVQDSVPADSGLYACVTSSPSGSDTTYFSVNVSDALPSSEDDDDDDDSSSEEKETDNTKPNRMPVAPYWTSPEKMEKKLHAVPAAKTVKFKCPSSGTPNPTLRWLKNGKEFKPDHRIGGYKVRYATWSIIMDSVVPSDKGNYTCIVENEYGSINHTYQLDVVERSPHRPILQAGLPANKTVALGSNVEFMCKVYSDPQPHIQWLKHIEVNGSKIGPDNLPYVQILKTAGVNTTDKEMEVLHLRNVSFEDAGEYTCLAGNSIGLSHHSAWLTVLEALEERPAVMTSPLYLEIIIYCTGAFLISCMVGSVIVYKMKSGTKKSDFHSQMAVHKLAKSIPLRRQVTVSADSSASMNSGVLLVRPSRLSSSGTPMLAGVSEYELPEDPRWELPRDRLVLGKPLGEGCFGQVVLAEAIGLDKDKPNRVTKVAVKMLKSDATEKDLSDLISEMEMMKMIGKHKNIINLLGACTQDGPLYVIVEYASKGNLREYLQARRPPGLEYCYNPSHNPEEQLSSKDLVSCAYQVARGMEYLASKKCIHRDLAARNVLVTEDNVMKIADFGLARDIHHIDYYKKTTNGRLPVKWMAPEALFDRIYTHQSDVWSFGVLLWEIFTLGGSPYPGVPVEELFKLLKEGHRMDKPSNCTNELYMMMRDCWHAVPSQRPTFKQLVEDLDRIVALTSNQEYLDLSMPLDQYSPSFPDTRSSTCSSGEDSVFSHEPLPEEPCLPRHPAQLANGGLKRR
# Flt-1 = Flt-1 (Homo sapiens, UniProt P17948); experiment: Tyrosine kinase inhibition rate (ELISA), Flt-1; type: biochemical; settings: read-out: Inhibtion rate (%) Flt-1
# ALK = ALK (Homo sapiens, UniProt Q9UM73); experiment: Tyrosine kinase inhibition rate (ELISA), ALK; type: biochemical; settings: read-out: Inhibtion rate (%) ALK
# c-Src = c-Src (Homo sapiens, UniProt P12931); experiment: Tyrosine kinase inhibition rate (ELISA), c-Src; type: biochemical; settings: read-out: Inhibtion rate (%) c-Src
# Chain of c-Src (P12931 whole entry, species assumed): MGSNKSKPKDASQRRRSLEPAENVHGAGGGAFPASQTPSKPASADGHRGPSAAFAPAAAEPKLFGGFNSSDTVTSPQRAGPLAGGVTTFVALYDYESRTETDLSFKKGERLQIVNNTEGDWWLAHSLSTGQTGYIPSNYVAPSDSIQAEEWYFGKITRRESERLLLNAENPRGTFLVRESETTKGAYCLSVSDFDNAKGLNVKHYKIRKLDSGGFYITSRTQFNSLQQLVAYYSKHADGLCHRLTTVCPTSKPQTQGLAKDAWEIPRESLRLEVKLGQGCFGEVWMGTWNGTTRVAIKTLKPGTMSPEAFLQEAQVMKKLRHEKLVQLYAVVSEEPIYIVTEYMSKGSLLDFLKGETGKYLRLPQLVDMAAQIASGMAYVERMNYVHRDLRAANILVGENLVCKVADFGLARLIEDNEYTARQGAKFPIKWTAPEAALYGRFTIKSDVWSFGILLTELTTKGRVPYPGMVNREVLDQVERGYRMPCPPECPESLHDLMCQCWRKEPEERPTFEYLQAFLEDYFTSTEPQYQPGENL
# ErbB4 = ErbB4 (Homo sapiens, UniProt Q15303); experiment: Tyrosine kinase inhibition rate (ELISA), ErbB4; type: biochemical; settings: read-out: Inhibtion rate (%) ErbB4
# PDGFR-α = PDGFR-α (Homo sapiens, UniProt P16234); experiment: Tyrosine kinase inhibition rate (ELISA), PDGFR-α; type: biochemical; settings: read-out: Inhibtion rate (%) PDGFR-α
# [2] = test system: human lung cancer EBC-1 xenograft tumor; experiment: Growth inhibition of subcutaneous xenograft tumor of human lung cancer EBC-1 in nude mice; type: in vivo; settings: for RTV (mean ± SD) / T/C (%) / TV (mm^3, mean ± SD) d21 / Weight (g) d21: d21
# Method: EBC-1 cells were subcutaneously inoculated into the armpit on the right side of the nude mice in an amount of 5×10^6/mouse respectively to form xenograft tumor, which were then passaged in nude mice for three generations. Tumor tissue that was growing vigorously was cut into about 1.5 mm^3 under sterile conditions, and subcutaneously inoculated into the armpit on the right side of the nude mice, and the diameter of the xenograft tumor was measured with a vernier caliper. The diameter of the subcutaneous xenograft tumor in nude mice was measured with a vernier caliper. […] The diameter of xenograft tumor was measured twice a week and the body weight of mice was weighed during the whole experiment. The tumor volume (TV) was calculated by the following equation: TV=½×a×b^2, wherein a and b represent the length and width, respectively. The relative tumor volume (RTV) was calculated based on the measured results, and the calculation equation thereof is: RTV=Vt/V0, wherein V0 is the tumor volume measured when the mice were divided in different cages and administered (i.e., d0) and Vt is the tumor volume measured each time.
# IGF1R = IGF1R (Homo sapiens, UniProt P08069); experiment: Tyrosine kinase inhibition rate (ELISA), IGF1R; type: biochemical; settings: read-out: Inhibtion rate (%) IGF1R
# EBC-1 cells = experiment: Inhibition of c-Met-mediated EBC-1 cell proliferation (SRB staining); type: cell-based; settings: Homo sapiens, 72 hours treatment
# Method in brief: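 MET-amplified EBC-1 NSCLC cells in log phase were seeded, cultured overnight, then exposed to compound in triplicate for 72 h. Growth was measured by TCA fixation, SRB staining and OD at 515 nm. IC50 reported as a range from the initial screening concentrations; experiment repeated twice.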
# EPH-A2 = EPH-A2 (Homo sapiens, UniProt P29317); experiment: Tyrosine kinase inhibition rate (ELISA), EPH-A2; type: biochemical; settings: read-out: Inhibtion rate (%) EPH-A2
# [3] = male, Sprague-Dawley, plasma, po, intragastric (gavage) 10 mg/kg, mean
# [4] = male, Sprague-Dawley, plasma, intravenous 5 mg/kg, mean
# [5] = 100 mg/kg oral once a day for 21 days
smiles,measurement,setting,value
"O=C(Nc1ccc(F)cc1)C1(C(=O)Nc2ccc(Oc3ccnc4cc(OCCN5CCOCC5)ncc34)c(F)c2)CC1 [Compound 7S, N-(3-fluoro-4-((7-(2-morpholinoethoxy)-1,6-naphthyridin-4-yl)oxy)phenyl)-N-(4-fluorophenyl)cyclopropyl-1,1-dicarboxamide]",IC50,c-Met kinase,0.001 to 0.01 µM
same,inhibition at 1 µM,"c-Met kinase; 1 μM, read-out: Inhibtion rate (%) c-Met",100%
same,inhibition at 1 µM,RET,78.2%
same,inhibition at 1 µM,PDGFR-β,48.7%
same,inhibition at 1 µM,ABL,23.3%
same,bioavailability,"[1]; male, Sprague-Dawley, plasma, oral, gavage 10 mg/kg vs intravenous 5 mg/kg, read-out: F (absolute bioavailability)",51.8%
same,AUC(0-inf),[1]; [3],16700 ng·h/mL
same,AUC(0-t),[1]; [3],16500 ng·h/mL
same,Cmax,[1]; [3],5450 ng/mL
same,Tmax,[1]; [3],1.75 h
same,half-life,[1]; [3],1.66 h
same,AUC(0-inf),[1]; [4],16000 ng·h/mL
same,AUC(0-t),[1]; [4],15900 ng·h/mL
same,clearance,[1]; [4],5.23 mL/min/kg
same,half-life,[1]; [4],1 h
same,Vd,"[1]; male, Sprague-Dawley, plasma, intravenous 5 mg/kg, mean, read-out: Vss",0.346 L/kg
same,MRT,"[1]; male, Sprague-Dawley, plasma, iv, 5 mg/kg, intravenous 5 mg/kg, mean, read-out: MRT",1.11 h
same,MRT,"[1]; male, Sprague-Dawley, plasma, po, 10 mg/kg, intragastric (gavage) 10 mg/kg, mean, read-out: MRT",2.6 h
same,MRT,"[1]; intragastric (gavage) 10 mg/kg, mean, 10 mg/kg",2.653 h
same,inhibition at 1 µM,EGFR,8.6%
same,inhibition at 1 µM,FGFR1,36.3%
same,inhibition at 1 µM,Flt-1,70.3%
same,inhibition at 1 µM,ALK,21.7%
same,inhibition at 1 µM,c-Src,55.9%
same,inhibition at 1 µM,ErbB4,6.6%
same,inhibition at 1 µM,PDGFR-α,55.6%
same,"TV (mm^3, mean ± SD) d0",[2]; 10 mg/kg qd/21 po,128 ± 34 mm^3
same,Weight (g) d0,[2]; 10 mg/kg qd/21 po,18.2 g
same,RTV (mean ± SD),[2]; 10 mg/kg qd/21 po,6.09 ± 2.17
same,T/C (%),[2]; 10 mg/kg qd/21 po,46.24%
same,"TV (mm^3, mean ± SD) d21",[2]; 10 mg/kg qd/21 po,764 ± 258 mm^3
same,Weight (g) d21,[2]; 10 mg/kg qd/21 po,22.0 g
same,tumor volume growth inhibition rate GI,[2]; [5],96.5%
same,tumor weight inhibition rate,[2]; [5],86.9%
same,"TV (mm^3, mean ± SD) d0",[2]; 100 mg/kg qd/21 po,128 ± 39 mm^3
same,Weight (g) d0,[2]; 100 mg/kg qd/21 po,17.4 g
same,RTV (mean ± SD),[2]; 100 mg/kg qd/21 po,1.26 ± 0.85
same,T/C (%),[2]; 100 mg/kg qd/21 po,9.58% and 9.5%
same,"TV (mm^3, mean ± SD) d21",[2]; 100 mg/kg qd/21 po,181 ± 156 mm^3
same,Weight (g) d21,[2]; 100 mg/kg qd/21 po,20.7 g
same,safety in vivo,[2]; within effective dose,safe and non-toxic within effective dose
same,inhibition at 1 µM,IGF1R,18.1%
same,IC50,EBC-1 cells,0.01 to 0.1 µM
same,inhibition at 1 µM,EPH-A2,87.9%
